Measurements published in US11324749B2, “Combination therapy for treatment of hematological diseases” (Incyte Corporation, priority 2018, dated 2022).

How the values were obtained:
[1] = biological target: human JAK2 (a.a. 828-1132) (Homo sapiens (Human), UniProt O60674); assay: In vitro JAK kinase assay (HTRF), JAK2 versus JAK1; type: biochemical; conditions: IC50 ratio, 1 mM ATP
Protocol: (§1) The catalytic activity of JAK1, JAK2, or JAK3 was assayed by measuring the phosphorylation of a biotinylated peptide. The phosphorylated peptide was detected by homogenous time resolved fluorescence (HTRF). […] Reactions are carried out at room temperature for 1 hour and then stopped with 20 μL 45 mM EDTA, 300 nM SA-APC, 6 nM Eu-Py20 in assay buffer (Perkin Elmer, Boston, Mass.). Binding to the Europium labeled antibody takes place for 40 minutes and HTRF signal was measured on a Fusion plate reader (Perkin Elmer, Boston, Mass.).

[2] = biological target: human JAK1 (a.a. 837-1142) (Homo sapiens, UniProt P23458); assay: In vitro JAK kinase assay (HTRF), JAK1; type: biochemical; conditions: 1 mM ATP
Protocol: as §1

Sequence of human JAK2 (a.a. 828-1132) (O60674 828-1132): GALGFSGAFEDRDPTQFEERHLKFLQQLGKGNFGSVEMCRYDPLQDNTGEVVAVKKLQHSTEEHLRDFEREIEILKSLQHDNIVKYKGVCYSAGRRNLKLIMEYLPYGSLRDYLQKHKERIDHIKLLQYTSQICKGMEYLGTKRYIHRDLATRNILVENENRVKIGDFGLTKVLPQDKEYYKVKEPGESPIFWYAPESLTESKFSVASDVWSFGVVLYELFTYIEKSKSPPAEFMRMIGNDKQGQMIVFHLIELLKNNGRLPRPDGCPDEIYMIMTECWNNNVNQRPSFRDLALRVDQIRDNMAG

SMILES | JAK2/JAK1 [1] | IC50 [2]
N#CCC(CN1CCN(C(=O)c2ccc(C#N)cc2F)CC1)n1cc(-c2ncnc3[nH]ccc23)cn1 (stereo not drawn) [Compound 8, 4-[(4-{3-cyano-2-[4-(7H-pyrrolo[2,3-d]pyrimidin-4-yl)-1H-pyrazol-1-yl]propyl}piperazin-1-yl)carbonyl]-3-fluorobenzonitrile] | >10 | < 10 nM
N#CCC1(n2cc(-c3ncnc4[nH]ccc34)cn2)CN(C2CCN(C(=O)c3ccnc(C(F)(F)F)n3)CC2)C1 [Compound 3, [3-[4-(7H-pyrrolo[2,3-d]pyrimidin-4-yl)-1H-pyrazol-1-yl]-1-(1-{[2-(trifluoromethyl)pyrimidin-4-yl]carbonyl}piperidin-4-yl)azetidin-3-yl]acetonitrile] | >10 | < 10 nM
N#CCC1(n2cc(-c3ncnc4[nH]ccc34)cn2)CN(C2CCN(C(=O)Nc3ccc(F)cc3C(F)(F)F)CC2)C1 [Compound 2, 4-{3-(Cyanomethyl)-3-[4-(7H-pyrrolo[2,3-d]pyrimidin-4-yl)-1H-pyrazol-1-yl]azetidin-1-yl}-N-[4-fluoro-2-(trifluoromethyl)phenyl] piperidine-1-carboxamide] | >10 | < 10 nM
N#CCC(C1CCN(c2cccc(Cl)n2)C1)n1cc(-c2ncnc3[nH]ccc23)cn1 (single isomer, unassigned) [Compound 6, 3-[1-(6-chloropyridin-2-yl)pyrrolidin-3-yl]-3-[4-(7H-pyrrolo[2,3-d]pyrimidin-4-yl)-1H-pyrazol-1-yl]propanenitrile] | >10 | < 10 nM
N#CCC(CN1CCN(C(=O)c2ccc(C#N)cc2F)CC1)n1ccc(-c2ncnc3[nH]ccc23)c1 (stereo not drawn) [Compound 9, 4-[(4-{3-cyano-2-[3-(7H-pyrrolo[2,3-d]pyrimidin-4-yl)-1H-pyrrol-1-yl]propyl}piperazin-1-yl)carbonyl]-3-fluorobenzonitrile] | >10 | < 10 nM
N#CCC(C1CCN(c2nc3cccnc3o2)C1)n1cc(-c2ncnc3[nH]ccc23)cn1 (stereo not drawn) [Compound 7, 3-(1-[1,3]oxazolo[5,4-b]pyridin-2-ylpyrrolidin-3-yl)-3-[4-(7H-pyrrolo[2,3-d]pyrimidin-4-yl)-1H-pyrazol-1-yl]propanenitrile] | >10 | < 10 nM
N#CC[C@]1(n2cc(-c3ncnc4[nH]ccc34)cn2)C[C@H](N2CCN(C(=O)c3ccnc(C(F)(F)F)n3)CC2)C1 [Compound 10, [trans-1-[4-(7H-pyrrolo[2,3-d]pyrimidin-4-yl)-1H-pyrazol-1-yl]-3-(4-{[2-(trifluoromethyl)pyrimidin-4-yl]carbonyl}piperazin-1-yl)cyclobutyl]acetonitrile] | >10 | < 10 nM
N#CC[C@]1(n2cc(-c3ncnc4[nH]ccc34)cn2)C[C@H](N2CCC(Oc3cc(CN4CC(O)C4)cc(C(F)(F)F)n3)CC2)C1 [Compound 11, {trans-3-(4-{[4-[(3-hydroxyazetidin-1-yl)methyl]-6-(trifluoromethyl)pyridin-2-yl]oxy}piperidin-1-yl)-1-[4-(7H-pyrrolo[2,3-d]pyrimidin-4-yl)-1H-pyrazol-1-yl]cyclobutyl}acetonitrile] | >10 | < 10 nM
C[C@@H](O)c1nc2cnc3ccsc3c2n1[C@H]1CC[C@H](CC#N)OC1 [Compound 5, ((2R,5S)-5-{2-[(1R)-1-hydroxyethyl]-1H-imidazo[4,5-d]thieno[3,2-b]pyridin-1-yl}tetrahydro-2H-pyran-2-yl)acetonitrile] | >10 | < 100 nM
N#CC[C@]1(n2cc(-c3ncnc4[nH]ccc34)cn2)C[C@H](N2CCC(Oc3cc(CN4CCC[C@H]4CO)cc(C(F)(F)F)n3)CC2)C1 [Compound 12, {trans-3-(4-{[4-{[(2S)-2-(hydroxymethyl)pyrrolidin-1-yl]methyl}-6-(trifluoromethyl)pyridin-2-yl]oxy}piperidin-1-yl)-1-[4-(7H-pyrrolo[2,3-d]pyrimidin-4-yl)-1H-pyrazol-1-yl]cyclobutyl}acetonitrile] | >10 | < 10 nM

Further lines, results first:

JAK2/JAK1 [1] | IC50 [2] | SMILES
>10 | < 10 nM | N#CCC1(n2cc(-c3ncnc4[nH]ccc34)cn2)CN([C@H]2CC[C@@H](Oc3cc(CCO)nc(C(F)(F)F)n3)CC2)C1 [Compound 18, {1-(cis-4-{[6-(2-hydroxyethyl)-2-(trifluoromethyl)pyrimidin-4-yl]oxy}cyclohexyl)-3-[4-(7H-pyrrolo[2,3-d]pyrimidin-4-yl)-1H-pyrazol-1-yl]azetidin-3-yl}acetonitrile]
>10 | < 10 nM | CCNCc1cc(O[C@H]2CC[C@@H](N3CC(CC#N)(n4cc(-c5ncnc6[nH]ccc56)cn4)C3)CC2)nc(C(F)(F)F)c1 [Compound 19, {1-(cis--4{[4-[(ethylamino)methyl]-6-(trifluoromethyl)pyridin-2-yl]oxy}cyclohexyl)-3-[4-(7H-pyrrolo[2,3-d]pyrimidin-4-yl)-1H-pyrazol-1-yl]azetidin-3-yl}acetonitrile]
>10 | < 10 nM | C[C@H](O)CNCc1cc(OC2CCN([C@H]3C[C@](CC#N)(n4cc(-c5ncnc6[nH]ccc56)cn4)C3)CC2)nc(C(F)(F)F)c1 [Compound 25, {trans-3-(4-{[4-({[(2S)-2-hydroxypropyl]amino}methyl)-6-(trifluoromethyl)pyridin-2-yl]oxy}piperidin-1-yl)-1-[4-(7H-pyrrolo[2,3-d]pyrimidin-4-yl)-1H-pyrazol-1-yl]cyclobutyl}acetonitrile]
>10 | < 10 nM | N#CCC1(n2cc(-c3ncnc4[nH]ccc34)cn2)CN([C@H]2CC[C@@H](Oc3cc(CN4CC[C@H](O)C4)cc(C(F)(F)F)n3)CC2)C1 [Compound 22, {1-(cis-4-{[4-{[(3S)-3-hydroxypyrrolidin-1-yl]methyl}-6-(trifluoromethyl)pyridin-2-yl]oxy}cyclohexyl)-3-[4-(7H-pyrrolo[2,3-d]pyrimidin-4-yl)-1H-pyrazol-1-yl]azetidin-3-yl}acetonitrile]
>10 | < 10 nM | N#CC[C@]1(n2cc(-c3ncnc4[nH]ccc34)cn2)C[C@H](N2CCC(Oc3cc(CCO)cc(C(F)(F)F)n3)CC2)C1 [Compound 26, {trans-3-(4-{[4-(2-hydroxyethyl)-6-(trifluoromethyl)pyridin-2-yl]oxy}piperidin-1-yl)-1-[4-(7H-pyrrolo[2,3-d]pyrimidin-4-yl)-1H-pyrazol-1-yl]cyclobutyl}acetonitrile]
>10 | < 10 nM | C[C@H](NC(=O)c1cc(F)c(N2CC(CC#N)(n3cc(-c4ncnc5[nH]ccc45)cn3)C2)cc1F)C(F)(F)F [Compound 16, 4-{3-(cyanomethyl)-3-[4-(7H-pyrrolo[2,3-d]pyrimidin-4-yl)-1H-pyrazol-1-yl]azetidin-1-yl}-2,5-difluoro-N-[(1S)-2,2,2-trifluoro-1-methylethyl]benzamide]
>10 | < 10 nM | N#CCC1(n2cc(-c3ncnc4[nH]ccc34)cn2)CN([C@H]2CC[C@@H](Oc3cc(CN4CC[C@@H](O)C4)cc(C(F)(F)F)n3)CC2)C1 [Compound 21, {1-(cis-4-{[4-{[(3R)-3-hydroxypyrrolidin-1-yl]methyl}-6-(trifluoromethyl)pyridin-2-yl]oxy}cyclohexyl)-3-[4-(7H-pyrrolo[2,3-d]pyrimidin-4-yl)-1H-pyrazol-1-yl]azetidin-3-yl}acetonitrile]
>10 | < 10 nM | C[C@@H](CO)NCc1cc(OC2CCN([C@H]3C[C@](CC#N)(n4cc(-c5ncnc6[nH]ccc56)cn4)C3)CC2)nc(C(F)(F)F)c1 [Compound 23, {trans-3-(4-{[4-({[(1S)-2-hydroxy-1-methylethyl]amino}methyl)-6-(trifluoromethyl)pyridin-2-yl]oxy}piperidin-1-yl)-1-[4-(7H-pyrrolo[2,3-d]pyrimidin-4-yl)-1H-pyrazol-1-yl]cyclobutyl}acetonitrile]
>10 | < 10 nM | CC(C)(O)c1cc(O[C@H]2CC[C@@H](N3CC(CC#N)(n4cc(-c5ncnc6[nH]ccc56)cn4)C3)CC2)nc(C(F)(F)F)c1 [Compound 20, {1-(cis-4-{[4-(1-hydroxy-1-methylethyl)-6-(trifluoromethyl)pyridin-2-yl]oxy}cyclohexyl)-3-[4-(7H-pyrrolo[2,3-d]pyrimidin-4-yl)-1H-pyrazol-1-yl]azetidin-3-yl}acetonitrile]
>10 | < 10 nM | C[C@@H](O)CNCc1cc(OC2CCN([C@H]3C[C@](CC#N)(n4cc(-c5ncnc6[nH]ccc56)cn4)C3)CC2)nc(C(F)(F)F)c1 [Compound 24, {trans-3-(4-{[4-({[(2R)-2-hydroxypropyl]amino}methyl)-6-(trifluoromethyl)pyridin-2-yl]oxy}piperidin-1-yl)-1-[4-(7H-pyrrolo[2,3-d]pyrimidin-4-yl)-1H-pyrazol-1-yl]cyclobutyl}acetonitrile]
>10 | < 10 nM | N#CC[C@]1(n2cc(-c3ncnc4[nH]ccc34)cn2)C[C@H](N2CCC(Oc3cc(CN4CCC[C@@H]4CO)cc(C(F)(F)F)n3)CC2)C1 [Compound 13, {trans-3-(4-{[4-{[(2R)-2-(hydroxymethyl)pyrrolidin-1-yl]methyl}-6-(trifluoromethyl)pyridin-2-yl]oxy}piperidin-1-yl)-1-[4-(7H-pyrrolo[2,3-d]pyrimidin-4-yl)-1H-pyrazol-1-yl]cyclobutyl}acetonitrile]
